Test results as given in patent US20030039957A1, “Functional protein expression for rapid cell-free phenotyping” (priority 2000, published 2003).
Values after ≈ are worked out from the molar mass of the structure shown. Like-named read-outs stand apart in the source and are kept apart here.

What was measured:
[1] = system: HIV reverse transcriptase, patient-derived protein; type: biochemical, HIV-1
From the text: The PCR-generated DNA templates were expressed into HIV reverse transcriptase and protease using a coupled reticulocyte lysate system, TNT T7 Quick for PCR DNA (Promega, Madison, Wis.). Sizes of the proteins, as well as a confirmation of their integrity, was confirmed by Western Blot.

HIV = conditions: cited from earlier work
mutant DNA Gyrase A = assay: Binding assays (affinity), mutant gyrase A; design: species or system Streptococcus pneumoniae
Protocol: (§1) The functional activity of the purified mutant DNA gyrase A protein obtained from the fluoroquinolone resistant Streptococcus pneumoniae was compared to wild-type DNA gyrase A protein in supercoiling inhibition assays and DNA cleavage assays as described in Pan et al., and Barnard et al., supra. A concentration range of antibiotics was added to contact both the wild-type and mutant proteins. In addition, the affinities for each antibiotic and both the wild-type and mutant proteins were derived according to the method described in Roychoudhury, et al., supra.

[2] = system: DNA gyrase versus topoisomerase IV; assay: Ratio of affinity parameter, DNA gyrase to control protein topoisomerase IV; type: binding, Streptococcus pneumoniae
[3] = system: mutant DNA gyrase A protein; assay: Supercoiling inhibition and DNA cleavage assays; type: biochemical, Streptococcus pneumoniae; conditions: for MIC relative to maximal serum drug concentrations reported for standard dosage regimens: enzyme inhibition or DNA cleavage assays
Protocol: as §1

wild-type DNA Gyrase A = target: T1, wild-type DNA Gyrase A (Streptococcus pneumoniae serotype 4, UniProt P0A4L9+P72524); assay: Binding assays (affinity), wild-type gyrase A
T1 construct: A 100 kDa protein, corresponding to the DNA gyrase A protein, was produced from this eukaryotic expression system; made in house; host or cells: cell-free coupled reticulocyte lysate (TNT T7 Quick for PCR DNA, Promega)
Protocol: as §1

S. cerevisiae AD1-8u(−) = conditions: Nakamura 2001; cited from earlier work
[4] = system: mutant lanosterol 14 alpha-demethylase proteins; assay: Prevention of CO-complex formation with reduced cytochrome P450, mutant; type: binding, C. albicans; conditions: mutant versus wild-type
Protocol: (§2) Microsomes were isolated from C. albicans as described in Marichal, P., et al., Microbiology (1999), 145, 2701-2713, incorporated herein by reference. Prevention of CO-complex formation in the reduced microsomal cytochrome P450 preparation provides an assay that can be used to test the affinity of the protein for an azole. The P-450 content and the effects of azoles on the interaction of CO with the reduced haem iron of P-450 were measured as described in Vanden Bossche, H., et al., Drug Dev Res, 8:287-298 (1986), incorporated herein by reference. The assay employed 0.1 nmol cytochrome P450 and 100 pM to 100 μM ranges of the anti-fungal compounds itraconazole and fluconazole.

[5] = target: T2, mutant lanosterol 14 alpha-demethylase proteins (Candida albicans, UniProt P10613); assay: as above; type: binding, C. albicans; conditions: mutant proteins
T2 construct: IC50; other: mutant proteins; other: at 100 nM; A 60 kDa protein, corresponding to the lanosterol 14 alpha-demethylase protein, was produced from this eukaryotic expression system
Protocol: as §2

[6] = system: strain AD 1002 overexpressing C. albicans Cdr1p; conditions: strain AD 1002 overexpressing Cdr1p, Nakamura 2001; cited from earlier work
[7] = target: T3, wild-type lanosterol 14 alpha-demethylase protein (Candida albicans, UniProt P10613); assay: Prevention of CO-complex formation with reduced cytochrome P450, wild-type; type: binding, C. albicans; design: A 60 kDa protein, corresponding to the lanosterol 14 alpha-demethylase protein, was produced from this eukaryotic expression system; made in house; conditions: wild-type proteins
Protocol: as §2

[8] = target: wild-type HCV NS5B RNA-dependent RNA polymerase (Hepatitis C virus genotype 2b, UniProt Q9DHD6); type: biochemical
[9] = system: patient derived HCV NS5B RNA-dependent RNA polymerase; type: biochemical, hepatitis C virus
[10] = target: T3, wild-type lanosterol 14 alpha-demethylase protein; design: A 60 kDa protein, corresponding to the lanosterol 14 alpha-demethylase protein, was produced from this eukaryotic expression system; made in house; host or cells: cell-free coupled reticulocyte lysate (TNT T7 Quick for PCR DNA, Promega); conditions: typically reported; cited from earlier work
[11] = target: wild-type HBV polymerase (HBV-WT) (Hepatitis B virus genotype A2 subtype adw2, UniProt P03159); assay: DNA polymerase assay (non-radioactive, sandwich ELISA) with cell-free expressed HBV polymerase; conditions: read-out: IC50, inhibition of DNA polymerase activity, FIG. 3, approximate
Sequence of wild-type HBV polymerase (HBV-WT) (P03159 whole entry): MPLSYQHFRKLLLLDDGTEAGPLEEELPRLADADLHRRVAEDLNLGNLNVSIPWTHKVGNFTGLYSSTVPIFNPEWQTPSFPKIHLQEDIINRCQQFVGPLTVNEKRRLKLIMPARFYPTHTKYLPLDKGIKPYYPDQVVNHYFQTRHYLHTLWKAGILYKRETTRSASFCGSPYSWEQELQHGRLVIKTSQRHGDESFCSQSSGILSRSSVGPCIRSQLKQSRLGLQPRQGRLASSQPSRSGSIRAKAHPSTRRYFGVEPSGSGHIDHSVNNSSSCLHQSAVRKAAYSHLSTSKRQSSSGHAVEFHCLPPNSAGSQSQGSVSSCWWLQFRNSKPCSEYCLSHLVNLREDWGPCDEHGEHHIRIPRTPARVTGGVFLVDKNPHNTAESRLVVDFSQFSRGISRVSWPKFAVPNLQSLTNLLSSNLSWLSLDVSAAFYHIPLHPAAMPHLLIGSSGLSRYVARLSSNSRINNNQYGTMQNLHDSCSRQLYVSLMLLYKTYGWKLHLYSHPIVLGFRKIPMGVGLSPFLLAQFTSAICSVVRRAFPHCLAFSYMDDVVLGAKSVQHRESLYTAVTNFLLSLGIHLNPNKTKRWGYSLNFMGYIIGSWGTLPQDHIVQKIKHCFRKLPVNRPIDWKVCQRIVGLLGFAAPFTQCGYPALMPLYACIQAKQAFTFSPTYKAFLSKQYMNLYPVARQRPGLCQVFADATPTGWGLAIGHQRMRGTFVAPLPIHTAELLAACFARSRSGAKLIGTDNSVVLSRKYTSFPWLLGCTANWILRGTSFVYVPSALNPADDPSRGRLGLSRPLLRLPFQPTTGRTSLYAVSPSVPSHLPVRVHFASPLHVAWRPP
From the text: A sensitive DNA polymerase assay (Roche Molecular Biochemicals, Indianapolis, Ind.) was used to determine the DNA polymerase activity of the expressed HBV polymerase proteins. […] The DNA polymerase assay as shown provides a non-radioactive assay, which measures the ability of the enzyme to digoxigenin and biotin labeled nucleotides into freshly synthesized DNA. The detection of synthesized DNA as a parameter for DNA polymerase activity follows a sandwich ELISA protocol—biotin labeled nucleic acid binds the surface of a microtiter plate coated with streptavidin. An anti-digoxigenin antibody conjugated to peroxidase is incubated with the nucleic acid. Upon addition of the peroxidase substrate, a color change occurs corresponding to the peroxidase activity, which is detected by a microplate ELISA reader. The absorbance samples is directly correlated to the level of DNA polymerase activity in the sample. […] In FIG. 1, HBV-WT refers to the wild-type HBV polymerase. […] PC and NC refer respectively to positive and negative controls. Briefly, the positive control includes Klenow enzyme in polymerase buffer. The negative control includes reticulcyte lysate without the DNA amplicon.
Inhibition of DNA polymerase activity (%) was plotted against compound concentration. […]

T3 sequence (P10613 whole entry): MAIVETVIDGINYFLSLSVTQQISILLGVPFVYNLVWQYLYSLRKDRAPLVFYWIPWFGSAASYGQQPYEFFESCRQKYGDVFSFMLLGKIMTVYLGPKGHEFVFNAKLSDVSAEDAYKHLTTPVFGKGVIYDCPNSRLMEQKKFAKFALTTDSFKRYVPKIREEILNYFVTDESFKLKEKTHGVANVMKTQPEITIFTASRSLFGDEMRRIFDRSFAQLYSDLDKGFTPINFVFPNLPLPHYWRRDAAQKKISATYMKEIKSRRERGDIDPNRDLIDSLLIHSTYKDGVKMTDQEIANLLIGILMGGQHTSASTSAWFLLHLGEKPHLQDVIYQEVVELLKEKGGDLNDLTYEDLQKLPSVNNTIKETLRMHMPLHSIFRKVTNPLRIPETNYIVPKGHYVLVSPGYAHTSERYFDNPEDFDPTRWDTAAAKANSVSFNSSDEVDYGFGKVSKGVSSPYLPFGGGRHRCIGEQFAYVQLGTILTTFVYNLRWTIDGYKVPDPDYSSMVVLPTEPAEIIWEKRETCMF
T2 sequence (P10613 whole entry, looked up, stated change not applied): as the sequence (P10613 whole entry) above
Sequence of wild-type HCV NS5B RNA-dependent RNA polymerase (Q9DHD6 2443-3033 limits assumed): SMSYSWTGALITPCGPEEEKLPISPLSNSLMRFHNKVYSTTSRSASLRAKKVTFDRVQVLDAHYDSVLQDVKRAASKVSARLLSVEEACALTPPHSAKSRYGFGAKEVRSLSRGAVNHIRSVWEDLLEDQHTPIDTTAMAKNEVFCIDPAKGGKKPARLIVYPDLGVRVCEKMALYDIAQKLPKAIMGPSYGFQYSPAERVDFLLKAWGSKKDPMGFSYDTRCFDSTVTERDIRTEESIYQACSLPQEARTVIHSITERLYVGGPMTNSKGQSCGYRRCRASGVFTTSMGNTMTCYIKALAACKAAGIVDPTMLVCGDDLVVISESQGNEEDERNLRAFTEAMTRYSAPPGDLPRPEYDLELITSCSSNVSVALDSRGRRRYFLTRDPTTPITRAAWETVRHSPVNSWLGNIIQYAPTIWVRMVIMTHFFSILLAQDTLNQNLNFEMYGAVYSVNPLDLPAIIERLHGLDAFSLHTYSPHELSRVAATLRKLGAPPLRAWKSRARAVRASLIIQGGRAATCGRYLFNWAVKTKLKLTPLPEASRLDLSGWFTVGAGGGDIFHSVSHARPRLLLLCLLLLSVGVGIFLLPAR
T1 sequence (P0A4L9 whole entry): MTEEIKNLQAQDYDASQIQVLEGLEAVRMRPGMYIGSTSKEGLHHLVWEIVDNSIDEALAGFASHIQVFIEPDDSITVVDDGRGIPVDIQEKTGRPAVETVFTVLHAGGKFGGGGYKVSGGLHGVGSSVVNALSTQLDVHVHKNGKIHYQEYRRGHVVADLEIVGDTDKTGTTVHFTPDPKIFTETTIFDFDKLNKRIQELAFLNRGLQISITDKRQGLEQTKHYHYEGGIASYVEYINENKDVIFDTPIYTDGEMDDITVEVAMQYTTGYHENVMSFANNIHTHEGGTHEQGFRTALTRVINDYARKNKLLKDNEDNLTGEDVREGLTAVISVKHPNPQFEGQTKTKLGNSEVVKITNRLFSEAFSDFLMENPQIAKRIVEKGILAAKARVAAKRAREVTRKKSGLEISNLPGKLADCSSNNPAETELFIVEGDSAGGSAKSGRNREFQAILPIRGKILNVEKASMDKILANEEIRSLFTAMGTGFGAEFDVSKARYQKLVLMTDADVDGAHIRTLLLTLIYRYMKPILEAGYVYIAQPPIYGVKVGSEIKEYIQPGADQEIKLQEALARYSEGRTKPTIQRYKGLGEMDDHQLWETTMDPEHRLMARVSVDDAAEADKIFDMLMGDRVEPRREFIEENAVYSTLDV
T1 sequence (P72524 whole entry): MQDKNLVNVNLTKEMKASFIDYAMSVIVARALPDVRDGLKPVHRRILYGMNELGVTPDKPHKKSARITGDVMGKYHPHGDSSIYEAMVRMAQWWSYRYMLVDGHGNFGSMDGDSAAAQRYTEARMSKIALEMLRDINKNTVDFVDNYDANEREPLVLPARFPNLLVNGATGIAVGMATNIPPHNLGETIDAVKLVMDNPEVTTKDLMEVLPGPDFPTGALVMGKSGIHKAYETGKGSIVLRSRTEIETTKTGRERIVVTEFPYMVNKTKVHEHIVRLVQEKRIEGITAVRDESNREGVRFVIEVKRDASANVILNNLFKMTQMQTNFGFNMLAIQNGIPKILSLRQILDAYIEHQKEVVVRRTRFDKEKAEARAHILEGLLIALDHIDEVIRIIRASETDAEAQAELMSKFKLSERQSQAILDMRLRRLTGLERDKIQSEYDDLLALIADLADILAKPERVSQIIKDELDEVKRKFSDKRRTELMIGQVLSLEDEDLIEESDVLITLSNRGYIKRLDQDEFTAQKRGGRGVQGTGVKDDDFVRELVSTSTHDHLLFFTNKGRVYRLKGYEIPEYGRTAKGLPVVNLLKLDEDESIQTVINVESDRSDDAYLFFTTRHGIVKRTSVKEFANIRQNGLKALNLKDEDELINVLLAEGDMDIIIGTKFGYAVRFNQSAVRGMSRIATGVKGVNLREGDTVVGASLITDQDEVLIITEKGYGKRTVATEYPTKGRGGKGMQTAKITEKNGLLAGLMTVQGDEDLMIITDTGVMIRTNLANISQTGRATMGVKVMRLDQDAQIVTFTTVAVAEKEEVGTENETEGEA

Cc1cn([C@H]2C[C@H](N=[N+]=[N-])[C@@H](CO)O2)c(=O)[nH]c1=O [AZT, zidovudine]
difference in the IC50 value, patient sample versus wild-type [1]: five-fold
reduction of virus replication (HIV): about 90%

NC1CCN(c2c(F)cc3c(=O)c(C(=O)O)cn(C4CC4)c3c2Cl)C1 (centres unmarked) [clinafloxacin]
affinity compared with ciprofloxacin, trovafloxacin, gatifloxacin, gemifloxacin and moxifloxacin (mutant DNA Gyrase A): higher affinities
ratio of the calculated affinity parameter for DNA gyrase to that for topoisomerase IV, compared with ciprofloxacin and trovafloxacin [2]: lower
MIC relative to maximal serum drug concentrations reported for standard dosage regimens [3]: below the maximal serum concentrations
affinity compared with ciprofloxacin, trovafloxacin, gatifloxacin, gemifloxacin and moxifloxacin (wild-type DNA Gyrase A): higher affinities

OC(Cn1cncn1)(Cn1cncn1)c1ccc(F)cc1F [fluconazole]
MIC(80), MIC at which 80% of cells were inhibited (S. cerevisiae AD1-8u(−)): 0.625 mg/L
range of IC50 values, wild-type to mutant [4]: more than 100 fold
IC50 [5]: ~4.88 µM
MIC(80) [6]: 30 mg/L (≈ 98 µM)
IC50 [7]: 0.04 µM

COc1c(N2CCNC(C)C2)c(F)cc2c(=O)c(C(=O)O)cn(C3CC3)c12 (centres unmarked) [gatifloxacin]
ratio of the calculated affinity parameter for DNA gyrase to that for topoisomerase IV, compared with ciprofloxacin and trovafloxacin [2]: lower
MIC relative to maximal serum drug concentrations reported for standard dosage regimens [3]: above the maximal serum drug concentrations

CO/N=C1\CN(c2nc3c(cc2F)c(=O)c(C(=O)O)cn3C2CC2)CC1CN (centres unmarked) [gemifloxacin]
MIC relative to maximal serum drug concentrations reported for standard dosage regimens [3]: below the maximal serum concentrations

CN1C(=O)[C@]23CC4=CC=C[C@H](O)[C@H]4N2C(=O)[C@@]1(CO)SS3 [gliotoxin]
effect on RdRp activity [8]: inhibited HCV NS5B RdRp of both wild-type and patient derived proteins in a dose-dependent manner
effect on RdRp activity [9]: inhibited HCV NS5B RdRp of both wild-type and patient derived proteins in a dose-dependent manner

Cc1c(F)c(N2CCNC(C)C2)cc2c1c(=O)c(C(=O)O)cn2C1CC1 (centres unmarked) [grepafloxacin]
MIC relative to maximal serum drug concentrations reported for standard dosage regimens [3]: above the maximal serum drug concentrations

CCC(C)n1ncn(-c2ccc(N3CCN(c4ccc(OCC5COC(Cn6cncn6)(c6ccc(Cl)cc6Cl)O5)cc4)CC3)cc2)c1=O (centres unmarked) [itraconazole]
IC50 [5]: 0.03 to 0.075 µM
IC50 [10]: 0.01 to 0.05 µM

CC(=O)N1CCN(c2ccc(OCC3COC(Cn4ccnc4)(c4ccc(Cl)cc4Cl)O3)cc2)CC1 (centres unmarked) [ketoconazole]
MIC(80) [6]: 0.5 mg/L (≈ 0.941 µM)

Nc1ccn([C@@H]2CS[C@H](COP(=O)(O)OP(=O)(O)OP(=O)(O)O)O2)c(=O)n1 [lamivudine-TP]
IC50 [11]: ~0.05 µM

CN[C@@H](C)[C@@H]1CCN(c2c(F)cc3c(=O)c(C(=O)O)cn(C4CC4)c3c2OC)C1 [premafloxacin]
fold increase in inhibitory concentration of mutant versus wild-type enzyme [3]: 32 fold

NC(=O)c1ncn([C@@H]2O[C@H](COP(=O)(O)OP(=O)(O)OP(=O)(O)O)[C@@H](O)[C@H]2O)n1 [ribavirin triphosphates]
effect on RdRp activity ([8]; wild-type NS5B protein): no inhibitory effect
effect on RdRp activity [9]: no inhibitory effect

C[C@@H]1CN(c2c(F)c(N)c3c(=O)c(C(=O)O)cn(C4CC4)c3c2F)C[C@H](C)N1 [sparfloxacin]
fold increase in inhibitory concentration of mutant versus wild-type enzyme [3]: about 4 fold

N[C@@H]1[C@H]2CN(c3nc4c(cc3F)c(=O)c(C(=O)O)cn4-c3ccc(F)cc3F)C[C@@H]12 [trovafloxacin]
MIC relative to maximal serum drug concentrations reported for standard dosage regimens [3]: above the maximal serum drug concentrations
